Measured values published in patent US5155259A, “Aldose reductase inhibitor” (Toyo Jozo Kabushiki Kaisha, priority 1990, dated 1992).

Tests used:
[1] = test system: sorbitol accumulation in lens; assay: Activity for suppressing accumulation of sorbitol, tissue culture of lens; format: cell-based, Wistar rats; conditions: for Inhibition of Sorbite Accumulat. in Lens: concentration of 2.5 γ, rat lens cultured 20 hours with added glucose
Protocol: (§1) Lenses and sciatic nerves excised from 7 weeks-old male Wistar rats were washed twice with an aseptic buffer solution consisting of 0.3% trisaminomethane, 0.8% NaCl, 0.038% KCl, 0.025% Na2 HPO4.12H2 O, 0.1% glucose and 1.85 ml/1 of concentrated HCl.
(§2) The lenses and the sciatic nerves were then treated by a 30 mins. preculture in a culture medium prepared by adding 2 ml of 7.5% conc. aseptic NaHCO3 solution and 5.5 ml of aseptic calf fetus serum to 100 ml of an aseptic culture medium of 0.98% TC Medium 199 (supplied from the firm NISSUI) containing 0.01% of dihydrostreptomycin and 0.01% of benzyl-penicillin. Thereafter, the intrinsic culture was effected in a culture medium prepared by adding each sample solution to be examined and 0.09% of glucose to the above-mentioned culture medium and permitting culturing to proceed for 20 hours. The culturing was effected at 37° C. in an atmosphere composed of 95% air and 5% CO2.
(§3) After culturing, the cultured samples of lens and sciatic nerve were removed from the culture medium to filter paper and the weight of each of them was measured after the adherent culture solution had been blown off. Then, each of the cultured samples was homogenized with the addition of 1 ml of a cold 8% HClO4 solution and the homogenized mixture was subjected to centrifugation at 10,000 G for 10 mins., whereby a supernatant was obtained. The resulting precipitate was then homogenized again with addition thereto of 0.5 ml of cold 8% HClO4 solution and the homogenized mixture was again subjected to centrifugation in a similar way as above to obtain a further supernatant. This was combined with the previously obtained supernatant and the resulting solution was neutralized with 2 N KOH aq. solution and was diluted with distilled water to a volume of 5 ml. The precipitate formed by neutralization was separated by centrifugation at 3,000 rpm for 10 mins. and the resulting supernatant was employed as the sample for determining the sorbitol content.
(§4) The determination of the sorbitol content in the lens and in the sciatic nerve was carried out in accordance with the technique of Bergmeyer in "Methods of Enzymatic Analysis" edited by H.U. Bergmeyer, pp 1323-1326, Academic Press, New York, 1974 and in accordance with the technique proposed by Malaon et al. in "Diabetes" 29, 861-864 (1980).
(§5) To 0.5 ml of the sample solution for determination of sorbitol content obtained as above, 0.9 ml of 0.1 M glycine-KOH buffer solution (pH 9.4) containing 1 mM of NAD^+ and 0.1 ml of a solution of sorbitol dehydrogenase of 20 units/ml were added and the resulting mixture was subjected to incubation at 37° C. for 1 hour.
(§6) The content of sorbitol in each tissue was estimated by assuming the increment of the photoabsorbance at 340 nm to be proportional to the amount of NADH produced by the reaction for the lens and by detecting the fluorescence with an excitation wavelength of 366 nm and a fluorescence wavelength of 425 nm for the sciatic nerve.
(§7) The activity for suppressing accumulation of sorbitol, i.e. the aldose reductase inhibiting activity, was calculated from the determined sorbitol content by the calculation formula [formula] in which A denotes the content of sorbitol per unit weight of the tissue after cultivation with addition of the inhibitor, B denotes the sorbitol content per unit weight of the tissue after cultivation without addition of the inhibitor and C represents the sorbitol content per unit weight of the tissue after cultivation in the medium without addition of glucose and inhibitor.

[2] = molecular target: T1, aldose reductase, originating from the lens of cattle (Bos taurus, UniProt P16116); assay: Enzyme reaction inhibiting activity (aldose reductase, NADPH / D,L-glyceraldehyde, absorbance at 340 nm); format: biochemical; conditions: for inhibition at 0.1 µg: concentration of 0.1 γ, pH 6.0, 37° C.
T1 construct: originating from the lens of cattle, was employed after being subjected to a partial purification; from tissue; host or cells: lens of cattle, partially purified
Protocol: The preparation of aldose reductase and the determination of its enzyme reaction inhibiting activity were carried out pursuant to the procedures disclosed by Haymann et al. in Journal of Biological Chemistry, 240, 877 (1965).
The sample solution to be examined for inhibiting activity was prepared by dissolving an amount of a compound of formula (I) according to the present invention in a small amount of methanol and increasing the volume of the resulting methanol solution by diluting it with distilled water up to tenfold volume. As the enzyme, i.e. aldose reductase, originating from the lens of cattle, was employed after being subjected to a partial purification.
To 2.4 ml of 5×10^-5 M NADPH solution dissolved in a 2/15 M phosphate buffer solution (pH 6.0), 0.4 ml of the enzyme solution and 0.1 ml of the sample solution to be examined were added and the mixture was charged in a quartz cell in a photoelectric photometer and was subjected to preincubation at 37° C. for 4 mins. Then, 0.1 ml of a 0.015 M D,L-glyceraldehyde solution was added thereto for initiating the enzyme reaction and the decrease in the photoabsorbance at 340 nm was measured at 37° C. for 4 mins. The aldose reductase inhibiting activity calculated by [formula] in which A represents the enzyme reaction rate with addition of the inhibitor and B denotes the enzyme reaction rate without addition of the inhibitor.

[3] = test system: sorbitol accumulation in sciatic nerve; assay: Activity for suppressing accumulation of sorbitol, tissue culture of sciatic nerve; format: cell-based, Wistar rats; conditions: concentration of 1.0 γ; rat sciatic nerve cultured 20 hours with added glucose
Protocol: as §1, §2, §3, §4, §5, §6, §7

[4] = test system: STD-DDY mice; assay: Acute toxicity, oral; format: in vivo; conditions: orally 400 mg/20 ml/kg, dissolved with aqueous NaOH at pH 6.5-7.0, observed for 10 days
Protocol: Compounds of formula (I) according to the present invention, as given in the examples below or 2,2'-dimethoxy-5, 5'-bis(3-carboxypropyl) biphenyl, were suspended in distilled water and were dissolved completely by adding at least the equimolar amount of aqueous NaOH solution. […] No fatality was marked in any of the administered groups.

Row | inhibition at 0.1 µg [2] | Compound | activity for suppressing accumulation of sorbitol (in words) ([1]; tissue and concentration not stated) | aldose reductase inhibiting activity (in words) ([2]; tests according to 1) and 2), concentration not given) | Inhibition of Sorbite Accumulat. in Lens [1] | Inhibition of Sorbite Accum. in Sciatic N. [3] | fatality (acute toxicity) [4]
1 | 43% | CCOc1ccc(CCC(=O)O)cc1-c1cc(CCC(=O)O)ccc1OCC [R=C2H5, n=2, 2,2'-diethoxy-5,5'-bis(2-carboxyethyl) biphenyl] |  |  | 56% | 69% | 
2 | 77% | CCOc1ccc(CCCC(=O)O)cc1-c1cc(CCCC(=O)O)ccc1OCC [R=C2H5, n=3, 2,2'-diethoxy-5,5'-bis(3-carboxypropyl) biphenyl] |  |  | 76% | 80% | 
3 | 35% | CCCOc1ccc(CCC(=O)O)cc1-c1cc(CCC(=O)O)ccc1OCCC [R=C3H7, n=2, 2,2'-dipropoxy-5,5'-bis(2-carboxyethyl) biphenyl] |  |  | 66% | 67% | 
4 | 57% | CCCOc1ccc(CCCC(=O)O)cc1-c1cc(CCCC(=O)O)ccc1OCCC [R=C3H7, n=3, 2,2'-dipropoxy-5,5'-bis(3-carboxypropyl) biphenyl] |  |  | 68% | 67% | 
5 | 48% | CCCCCOc1ccc(CCCC(=O)O)cc1-c1cc(CCCC(=O)O)ccc1OCCCCC [R=C5H11, n=3, 2,2'-dipentyloxy-5,5,'-bis(3-carboxypropyl) biphenyl] |  |  |  |  | 
6 | 44% | COc1ccc(CCC(=O)O)cc1-c1cc(CCC(=O)O)ccc1OC [R=CH3, n=2, 2,2'-dimethoxy-5,5'-bis(2-carboxyethyl) biphenyl] |  |  | 76% | 85% | 

More lines, now with the values behind:

Row | Compound | inhibition at 0.1 µg [2] | activity for suppressing accumulation of sorbitol (in words) ([1]; tissue and concentration not stated) | aldose reductase inhibiting activity (in words) ([2]; tests according to 1) and 2), concentration not given) | Inhibition of Sorbite Accumulat. in Lens [1] | Inhibition of Sorbite Accum. in Sciatic N. [3] | fatality (acute toxicity) [4]
7 | 2,2'-dimethoxy-5, 5'-bis(3-carboxypropyl) biphenyl diester |  | no activity for suppressing accumulation of sorbitol | did not exhibit any aldose reductase inhibiting activity |  |  | 
8 | O=C(O)CCc1ccc(OCC2CCCCC2)c(-c2cc(CCC(=O)O)ccc2OCC2CCCCC2)c1 [2,2'-dicyclohexylmethoxy-5,5'-bis(2-carboxyethyl) biphenyl] | 44% |  |  | 51% |  | 
9 | O=C(O)CCCc1ccc(OCC2CCCCC2)c(-c2cc(CCCC(=O)O)ccc2OCC2CCCCC2)c1 [2,2'-dicyclohexylmethoxy-5,5'-bis(3-carboxypropyl) biphenyl] | 45% |  |  | 57% |  | 
10 | COc1ccc(CCCC(=O)O)cc1-c1cc(CCCC(=O)O)ccc1OC [R=CH3, n=3, 2,2'-dimethoxy-5,5'-bis (3-carboxypropyl) biphenyl] | 63% |  |  | 85% | 92% | No fatality
